The text below walks through data of patent publication US20220112187A1, “PYRAZOLOPYRIDINE AMINE COMPOUNDS FOR THE TREATMENT OF AUTOIMMUNE DISEASE” (Hoffmann-La Roche Inc., priority 2018, published 2022).

The target of this assay is T1, human TLR7 (Homo sapiens, UniProt Q9NYK1).
T1 sequence (Q9NYK1 27-1049): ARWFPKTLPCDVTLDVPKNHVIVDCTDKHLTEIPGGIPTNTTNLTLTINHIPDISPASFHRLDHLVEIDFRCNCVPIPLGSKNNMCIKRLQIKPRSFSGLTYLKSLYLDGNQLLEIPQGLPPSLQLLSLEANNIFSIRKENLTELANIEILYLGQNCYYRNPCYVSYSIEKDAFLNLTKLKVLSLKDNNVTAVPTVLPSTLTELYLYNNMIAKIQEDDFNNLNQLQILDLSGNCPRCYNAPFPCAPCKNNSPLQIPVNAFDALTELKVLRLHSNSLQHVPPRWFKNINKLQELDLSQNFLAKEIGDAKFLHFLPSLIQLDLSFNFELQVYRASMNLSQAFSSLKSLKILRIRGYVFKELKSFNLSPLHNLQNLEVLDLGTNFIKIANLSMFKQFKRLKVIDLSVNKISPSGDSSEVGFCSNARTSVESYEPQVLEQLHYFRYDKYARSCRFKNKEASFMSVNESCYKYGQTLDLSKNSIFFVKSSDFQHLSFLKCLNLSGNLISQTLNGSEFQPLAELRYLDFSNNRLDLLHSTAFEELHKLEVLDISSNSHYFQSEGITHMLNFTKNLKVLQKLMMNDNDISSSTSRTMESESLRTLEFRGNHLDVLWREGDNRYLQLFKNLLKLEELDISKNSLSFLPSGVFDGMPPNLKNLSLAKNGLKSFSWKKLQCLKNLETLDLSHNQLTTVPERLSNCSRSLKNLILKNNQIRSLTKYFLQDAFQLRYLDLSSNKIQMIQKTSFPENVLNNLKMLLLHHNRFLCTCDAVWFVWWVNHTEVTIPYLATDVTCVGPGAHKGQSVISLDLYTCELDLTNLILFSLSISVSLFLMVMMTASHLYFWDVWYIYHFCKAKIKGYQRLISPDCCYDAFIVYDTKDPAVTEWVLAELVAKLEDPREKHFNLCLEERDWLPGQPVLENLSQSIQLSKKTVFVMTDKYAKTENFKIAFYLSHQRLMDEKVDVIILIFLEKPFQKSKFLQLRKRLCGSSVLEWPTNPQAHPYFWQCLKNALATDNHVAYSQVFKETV
Nature of the assay: HEK293-Blue-hTLR-7 cells assay (SEAP reporter, R848 stimulation). In kind it is cell-based. As to conditions: HEK293-Blue-hTLR7 cells, R848 ligand, 20 hrs incubation. The essentials: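 Antagonist mode: HEK293-Blue-hTLR7 cells (250,000–450,000 cells/mL) incubated 20 h at 37° C. with serially diluted compound (1% DMSO) and R848 (20 uM stock). NF-κB/AP-1-driven SEAP in supernatant read with QUANTI-Blue after 2 h at 37° C., absorbance 620–655 nm.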

What is called IC50 is the concentration needed to halve the response being measured. Compound `C[C@@H]1CN(c2ccc(C#N)n3nccc23)C[C@H](CN2CCC3NCC3C2)O1` (stereo partly drawn) [Example 70, 4-[(2S,6R)-2-(3,7-diazabicyclo[4.2.0]octan-3-ylmethyl)-6-methyl-morpholin-4-yl]pyrazolo[1,5-a]pyridine-7-carbonitrile] yielded an IC50 of 230 nM. As to `C[C@@H]1CN(c2ccc(C#N)n3nccc23)C[C@H](CN2CCC23CNC3)O1` [Example 55, 4-[(2S,6R)-2-(1,6-diazaspiro[3.3]heptan-1-ylmethyl)-6-methyl-morpholin-4-yl]pyrazolo[1,5-a]pyridine-7-carbonitrile], the IC50 is 540 nM. In turn, `C[C@@H]1CN(c2ccc(C#N)n3nccc23)C[C@H](CN2CCCC3(CCNC3)C2)O1` (stereo partly drawn) [Example 44, 4-[(2S,6R)-2-(2,7-diazaspiro[4.5]decan-7-ylmethyl)-6-methyl-morpholin-4-yl]pyrazolo[1,5-a]pyridine-7-carbonitrile] had a half-inhibitory concentration (IC50) of 240 nM. Compared with the last compound, the IC50 is about 2.2-fold lower. Regarding `C[C@@H]1CN(c2ccc(C#N)n3nccc23)C[C@H](CN2CCC[C@@H]3NCCC32)O1` (stereo partly drawn) [Example 63, 4-[(2R,6S)-2-methyl-6-[[cis-(3aS,7aS)-1,2,3,3a,5,6,7,7a-octahydropyrrolo[3,2-b]pyridin-4-yl]methyl]morpholin-4-yl]pyrazolo[1,5-a]pyridine-7-carbonitrile], the IC50 is 270 nM. In the case of `C[C@@H]1CN(c2ccc(C#N)n3nccc23)C[C@H](CN2CC[C@@H]3CNCC32)O1` (stereo partly drawn) [Example 62, 4-[(2R,6S)-2-methyl-6-[[cis-(3aR,6aR)-3,3a,4,5,6,6a-hexahydro-2H-pyrrolo[3,4-b]pyrrol-1-yl]methyl]morpholin-4-yl]pyrazolo[1,5-a]pyridine-7-carbonitrile], the IC50 stood at 710 nM.
